Data on eight compounds can be found in PMC9501280, “Anti-Inflammatory Activity of Soluble Epoxide Hydrolase Inhibitors Based on Selenoureas Bearing an Adamantane Moiety” (International Journal of Molecular Sciences, 2022).

The nature of data set [1]: DPPH radical scavenging activity. Conditions: compound solution 0.2 mM in MeOH mixed 1:1 with 0.2 mM DPPH, 40 min, 20 °C. On the procedure: The free radical scavenging activity was evaluated using the stable radical 2,2-diphenyl-1-picrylhydrazyl (DPPH), according to the method described by Brand-Williams with a slight modification. Solutions of the compounds in MeOH were studied at a concentration of 0.2 mM. The stock DPPH solution contained 0.2 mM of radical in MeOH. An amount of 0.1 mL of the test compound solution was added to 0.1 mL of DPPH solution (0.2 mM) in each cell so that the initial DPPH concentration in the cells was 0.1 mM. The microplate was placed in a spectrophotometer, and the decrease in the absorbance values of the DPPH solution for 40 min at 20 °C was measured at λmax = 517 nm. The results were expressed as scavenging activity, calculated as follows: scavenging activity, % = [(A0 − A1)/A0] × 100, where A0 is the optical density of the control solution DPPH, and A1 is the optical density of the reaction mixture solution.
In general terms: DPPH is a stable violet radical that fades when it is reduced.

A short description of data set [2]: Antiradical activity in nonenzymatic quinoid oxidation of adrenaline. Conditions: adrenaline autoxidation without compound = 100%; initial concentration 25 µM. On the procedure: The antiradical activity of compounds 4a–g and 5a in the reaction of nonenzymatic quinoid oxidation of adrenaline (1-(3,4-dioxyphenyl)-2-methylaminoethanol) in alkaline bicarbonate buffer was evaluated. As a result of this reaction, not only the superoxide anion radical is formed, but also radicals of carbonate–bicarbonate anions, which makes it possible to reveal the total antiradical activity of potential antioxidants. […] Thus, we confirmed the antiradical activity of compounds 4a–g and 5a with respect to O2^–• generated in enzymatic and nonenzymatic model systems.
SOD-protective activity of the biopreparation was the ability to utilize the superoxide anion radical O2^–•, as determined by the method of Sirota. A cytosolic fraction of the Russian sturgeon liver homogenate was used as the source of SOD. First, the sturgeon liver was washed with cold 0.2 M Tris (tris (hydroxymethyl) aminomethane) buffer (pH 7.8) to remove any traces of blood. All of the procedures were performed at a temperature of 0–4 °C. Next, a homogenate was obtained using a Potter homogenizer (Thomas Scientific, Swedesboro, NJ, USA) in 0.2 M Tris buffer at a ratio of 1:10. The homogenate was then centrifuged for 10 min at 1000× g to remove partially destroyed cells and nuclei. The resulting supernatant contained the enzymes of the cytosolic fraction of the liver homogenate, including the SOD. Here, 10 µL of the biopreparation was added to a cuvette with 200 µL of bicarbonate buffer (pH 10.65), 10 µL of the tested compound (initial concentrations of these compounds 25 µM) and 10 µL of 0.1% adrenaline solution and was thoroughly and quickly mixed. The rate of adrenaline oxidation without and in the presence of the biopreparation was evaluated by the change in optical density, measured at 347 nm for 3 min. The decrease in the rate of the process in the presence of the biopreparation was used to characterize the SOD-protective activity.

The nature of data set [3]: Superoxide radical anion formation by xanthine oxidase (NBT assay). The format is biochemical. Conditions: sample solution 5 mM in DMSO. On the procedure: The superoxide anion radical scavenging activity of derivatives 4a–g and 5a was evaluated by the ability to inhibit the reduction of nitro blue tetrazolium (NBT) to blue formazan by trapping O2^•− generated by xanthine oxidase in the oxidation of hypoxanthine to uric acid.
EDTA, xanthine, bovine serum albumin, nitro blue tetrazolium and xanthine oxidase (25 MU) were purchased from Sigma Aldrich (Burlington, MA, USA). The superoxide anions were generated enzymatically by the xanthine oxidase system. The reaction mixture consisted of 2.70 mL of 40 mM sodium carbonate buffer containing 0.1 mM EDTA (pH 10.0), 0.06 mL of 10 mM xanthine, 0.03 mL of 0.5% bovine serum albumin, 0.03 mL of 2.5 mM nitro blue tetrazolium and 0.06 mL of the sample solution in DMSO at the concentration of 5 mM. An amount of 0.12 mL of xanthine oxidase (0.04 units) was added to the mixture at 25 °C, and the absorbance at 560 nm (by formation of blue formazan) was measured by a microplate spectrophotometer for 60 s. A control experiment was carried out by replacing the sample solution with the same amount of DMSO.
Inhibition I (%) = [(1 − Ai/A0) × 100%], where Ai is the absorbance in the presence of the testing compound, and A0 is the absorbance of the blank solution. All experiments were performed three times.

Data set [4] can be described thus: Nitric oxide radical scavenging assay (sodium nitroprusside, Griess). Conditions: sample solution 0.5 mM, sodium nitroprusside 5 mM, 150 min. The procedure: The activity of compounds 4a–g and 5a with respect to NO^• generated from sodium nitroprusside, which further interacts with dissolved oxygen to form nitrite ions measured using the Griss reagent, was investigated.
Sodium nitroprusside (SNP) dissolved in aqueous solution at physiological pH 7.2 can generate nitric oxide whose level can be measured by the Griess reaction. Sample solution (50 µL, 0.5 mM) was mixed with SNP (50 µL, 5 mM) in phosphate buffer at pH 7.4 (0.2 M), followed by an incubation at room temperature for 150 min. Similarly, a blank was prepared by adding the sample solution in phosphate buffer without SNP. Griess reagent (solutions of 0.33% sulfanilic acid and 0.1% N-(1-naphthyl) ethylenediamine (NED) (C12H14N2) in 20% glacial acetic acid; 1:1) (100 µL) was added to the incubated sample and allowed to stand for 30 min. Absorbance values of the blank and samples were measured at 548 nm. The absorbance of the blank was then subtracted from that of the sample. Results were expressed as %inhibition. Inhibition I (%) = [(A0 − A1)/A0] × 100, where A1 is the absorbance in the presence of the testing compound, and A0 is the absorbance of the blank solution. All experiments were performed three times.
Background: The Griess reaction detects nitrite, a stable product of nitric oxide.

Usually melting point stands for the temperature of the solid-liquid transition.

Take `[Se]=C(Nc1ccccc1)NC12CC3CC(CC(C3)C1)C2` [4a, 1-(Adamantan-1-yl)-3-phenylselenourea]: the melting point was 202 to 203 °C. Besides, the “% Inhibition DPPH•” value in data set [1] is reported as 44.89 ± 0.04%. Moreover, the “% Inhibition, Antiradical Activity (O2–•)” value (“% Inhibition … (O2–•)” below) in data set [2] was 35.49 ± 0.03%. Further, the “% Inhibition NBT” value in data set [3] turned out to be 29.17 ± 0.01%. Also, in data set [4], the “% Inhibition NO•” value is listed as “non active”.

On to `[Se]=C(NCC12CC3CC(CC(C3)C1)C2)Nc1ccccc1` [4b, 1-[(Adamantan-1-yl)methyl]-3-phenylselenourea], for which the melting point was in the range of 197 to 198 °C. Besides, the “% Inhibition DPPH•” value in data set [1] turned out to be 70.75 ± 1.10%. In addition, the “% Inhibition … (O2–•)” value in data set [2] is 19.37 ± 0.88%. Further, the “% Inhibition NBT” value in data set [3] came to 35.20 ± 1.46%. For the same compound, in data set [4], the “% Inhibition NO•” value amounted to 20.57 ± 1.42%.

For `CC(NC(=[Se])Nc1ccccc1)C12CC3CC(CC(C3)C1)C2` (stereo not drawn) [4c, 1-[1-(Adamantan-1-yl)ethyl]-3-phenylselenourea], in data set [1], the “% Inhibition DPPH•” value was determined as 68.81 ± 1.69%. Also, the “% Inhibition … (O2–•)” value in data set [2] is on record as 21.64 ± 2.29%. The “% Inhibition NBT” value in data set [3] is listed as 6.52 ± 0.50%. Besides, the “% Inhibition NO•” value in data set [4] came to 54.35 ± 2.38%.

Take `[Se]=C(NCCC12CC3CC(CC(C3)C1)C2)Nc1ccccc1` [4d, 1-[2-(Adamantan-1-yl)ethyl]-3-phenylselenourea]: the melting point was in the range of 141 to 142 °C. In data set [1], the “% Inhibition DPPH•” value was 70.90 ± 2.13%. Further, in data set [2], the “% Inhibition … (O2–•)” value was found to be 9.97 ± 0.41%. Also, the “% Inhibition NBT” value in data set [3] was determined as 6.85 ± 1.18%. Also, the “% Inhibition NO•” value in data set [4] came out at 31.36 ± 2.48%.

The compound `[Se]=C(Nc1ccccc1)Nc1ccc(C23CC4CC(CC(C4)C2)C3)cc1` [4e, 1-[4-(Adamantan-1-yl)phenyl]-3-phenylselenourea] registered a melting point of 163 to 164 °C. Moreover, the “% Inhibition DPPH•” value in data set [1] came out at 66.15 ± 0.56%. The “% Inhibition … (O2–•)” value in data set [2] turned out to be 23.68 ± 0.03%. In addition, the “% Inhibition NBT” value in data set [3] came out at 4.75 ± 0.50%. The “% Inhibition NO•” value in data set [4] is on record as 2.63 ± 0.99%.

Compound `CC12CC3CC(C)(C1)CC(NC(=[Se])Nc1ccccc1)(C3)C2` [4f, 1-(3,5-Dimethyladamantan-1-yl)-3-phenylselenourea] returned a melting point of 142 to 143 °C. The “% Inhibition DPPH•” value in data set [1] is 58.35 ± 0.92%. Moreover, the “% Inhibition … (O2–•)” value in data set [2] was 20.95 ± 1.20%. Also, in data set [3], the “% Inhibition NBT” value came to 10.93 ± 1.05%. Besides, the “% Inhibition NO•” value in data set [4] came out at 7.27 ± 0.72%.

Compound `[Se]=C(Nc1ccccc1)NC1C2CC3CC(C2)CC1C3` (stereo not drawn) [4g, 1-(Adamantan-2-yl)-3-phenylselenourea] registered a melting point of 187 to 188 °C. Besides, the “% Inhibition DPPH•” value in data set [1] is 71.82 ± 1.10%. Moreover, the “% Inhibition … (O2–•)” value in data set [2] amounted to 24.66 ± 1.33%. For the same compound, the “% Inhibition NBT” value in data set [3] is 14.26 ± 1.48%. In data set [4], the “% Inhibition NO•” value is recorded as 27.91 ± 1.50%.

In turn, `[Se]=C(NCc1ccccc1)NC12CC3CC(CC(C3)C1)C2` [5a, 1-(Adamantan-1-yl)-3-benzylselenourea] returned a melting point of 157 to 158 °C. The “% Inhibition DPPH•” value in data set [1] is 59.45 ± 0.09%. Further, the “% Inhibition … (O2–•)” value in data set [2] was found to be 43.79 ± 0.02%. Besides, in data set [3], the “% Inhibition NBT” value was determined as 56.52 ± 0.05%. Besides, in data set [4], the “% Inhibition NO•” value is listed as “non active”.
